Measurements as given in ChEMBL document CHEMBL1133823, “Antiviral drug design: computational analyses of the effects of the L100I mutation for HIV-RT on the binding of NNRTIs” (Bioorg Med Chem Lett, 2001).
“And” between values parts separate entries of the source, which are not always exact repeats. Equal entries are not always repeated.

Legend:
[1] = target: Human immunodeficiency virus type 1 reverse transcriptase (Human immunodeficiency virus 1, UniProt Q72547, L100I); assay: Effective concentration required against L100I mutant HIV-1 reverse transcriptase
[2] = target: Human immunodeficiency virus type 1 reverse transcriptase (Human immunodeficiency virus 1, UniProt Q72547); assay: Effective concentration required against wild type HIV-1 reverse transcriptase
[3] = Fold resistance (L100I/ WT) was determined
[4] = Fold resistance (L100I/ WT) (as per ref 12 in the article)
[5] = Fold resistance (L100I/ WT) (as per ref 6 in the article)
[6] = Fold resistance (L100I/ WT) (as per ref 7 in the article)
[7] = Fold resistance (L100I/ WT) (as per ref 8 in the article)
[8] = Fold resistance (L100I/ WT) (as per ref 10 in the article)

| SMILES | EC50 [1] | EC50 [2] | FR [3] | FR [4] | FR [5] | FR [6] | FR [7] | FR [8] |
| --- | --- | --- | --- | --- | --- | --- | --- | --- |
| CC(C)=CCOc1cc(NC(=S)c2ccoc2C)ccc1Cl [UC 781] | 24 nM | 9 nM | 2.7 | – | – | – | – | – |
| CCOCn1c(Cc2ccccc2)c(C(C)C)c(=O)[nH]c1=O [EMIVIRINE] | 20 nM | 2 nM | 10 | – | – | – | – | – |
| Cc1ccnc2c1NC(=O)c1cccnc1N2C1CC1 | – | – | – | 5 | 0.6 | 2.1 | 12.7 | – |
| CC(C)=CCN1Cc2cc(Cl)cc3[nH]c(=S)n(c23)C[C@@H]1C | 5600 nM | 60 nM | 93.3 | – | – | – | – | – |
| O=C1Nc2ccc(Cl)cc2[C@@](C#CC2CC2)(C(F)(F)F)O1 | – | – | – | – | – | – | – | 5.9 and 8.6 |
